For the data set, the system named is NR2B siRNA electroporated ACC neurons. Description: LTP in siRNA electroporated ACC neurons. The data set is classed as cell-based, mouse. Here is the method:
Experiments were performed in a recording chamber on the stage of an Axioskop 2FS microscope with infrared DIC optics for visualizing whole-cell patch clamp recordings. EPSCs were recorded from layer II-III neurons using an Axon 200B amplifier (Axon Instruments, CA) and stimulations were delivered using a bipolar tungsten stimulating electrode placed in layer V of the ACC. In hippocampal slices, EPSCs were evoked by stimulating the Schaffer collateral-commissural pathway. EPSCs were induced by repetitive stimulations at 0.02 Hz and neurons were voltage clamped at −70 mV. The recording pipettes (3-5 MΩ) were filled with solution containing (mM) 145 K-gluconate, 5 NaCl, 1 MgCl2, 0.2 EGTA, 10 HEPES, 2 Mg-ATP, and 0.1 Na3-GTP (adjusted to pH 7.2 with KOH). After obtaining stable EPSCs for 10 min, three kinds of LTP induction paradigms were used within 12 min after establishing the whole-cell configuration to prevent wash out effect on LTP induction (Tsvetkov et al., 2002). The first protocol involved paired presynaptic 80 pulses at 2 Hz with postsynaptic depolarization at +30 mV (referred to as pairing training). The second involved paired 3 presynaptic stimuli that caused 3 EPSPs (10 ms ahead) with 3 postsynaptic APs at 30 Hz, paired 15 times every 5 s (named as EPSPs-APs protocol). The third involved theta-burst stimulation (5 trains of burst with 4 pulses at 100 Hz, at 200 ms interval; repeated 4 times at intervals of 10 s; named as TBS). The NMDAR-mediated component of EPSCs was pharmacologically isolated in Mg^2+-free ACSF containing: CNQX (20 μM), glycine (1 μM) and picrotoxin (100 μM). The patch electrodes contained (in mM) 102 cesium gluconate, 5 TEA-chloride, 3.7 NaCl, 11 BAPTA, 0.2 EGTA, 20 HEPES, 2 MgATP, 0.3 NaGTP, and 5 QX-314 chloride (adjusted to pH 7.2 with CsOH). Neurons were voltage clamped at −60 mV and NMDARs-mediated EPSCs were evoked at 0.05 Hz. Picrotoxin (100 μM) was always present to block GABAA receptor-mediated inhibitory synaptic currents. The access resistance was 15-30 MΩ and was monitored throughout the experiment. […] Results are expressed as means±SEM. […]

“NR2B siRNA: siRNA corresponding to NR2B, sense 5′-GGAUGAGUCCUCCAUGUUCtt-3′, antisense 5′-GAACAUGGAGGACUCAUCCtt-3′, Silencer Pre-designed siRNA ID #61879, Ambion (sense GGAUGAGUCCUCCAUGUUCTT; antisense GAACAUGGAGGACUCAUCCTT; chemistry not given here)”: where the note is “FIG. 7D”, the “LTP vs control siRNA electroporated neurons” value is “Smaller LTP”. In addition, the “potentiation (LTP) vs control siRNA electroporated neurons” value is on record as “significantly reduced” (TBS) and “significantly reduced” (pairing training protocol).

These data come from patent publication US20070161592A1, “Method of treating fear” (priority 2005, published 2007).
